From the NIST ThermoML archive (doi:10.1016/j.tca.2011.06.003)

Assay: xn = mol fraction of the nth substance listed
Settings: 101 kPa, Liquid; for speed of sound: Sing-around technique in a fixed-path interferometer; for mass density: Vibrating tube method

NCCNCCN [di(2-aminoethyl)amine] + CCCCO
Settings | mass density [kg/m3] | speed of sound [m/s] | viscosity [mPa·s]
293.15 K, x1 = 0.0517 | 821.995 | 1288 | –
293.15 K, x1 = 0.1085 | 834.306 | 1319.9 | –
293.15 K, x1 = 0.153 | 843.084 | 1343.3 | –
293.15 K, x1 = 0.2024 | 852.085 | 1369.5 | –
293.15 K, x1 = 0.2524 | 860.585 | 1393.7 | –
293.15 K, x1 = 0.3079 | 869.265 | 1419.6 | –
293.15 K, x1 = 0.4082 | 883.406 | 1464.1 | –
293.15 K, x1 = 0.5013 | 895.464 | 1502.4 | –
293.15 K, x1 = 0.6067 | 908.152 | 1543.5 | –
293.15 K, x1 = 0.7079 | 919.755 | 1581.6 | –
293.15 K, x1 = 0.8 | 929.638 | 1616.5 | –
293.15 K, x1 = 0.8548 | 935.634 | 1637 | –
293.15 K, x1 = 0.9075 | 941.042 | 1656.6 | –
293.15 K, x1 = 0.9525 | 945.451 | 1673.3 | –
298.15 K, x1 = 0.0517 | 818.115 | 1271 | 3.066
298.15 K, x1 = 0.1085 | 830.363 | 1302.9 | 3.551
298.15 K, x1 = 0.153 | 839.101 | 1327.1 | 3.907
298.15 K, x1 = 0.2024 | 848.068 | 1351.9 | 4.256
298.15 K, x1 = 0.2524 | 856.54 | 1376.5 | 4.526
298.15 K, x1 = 0.3079 | 865.207 | 1402.5 | 4.772
298.15 K, x1 = 0.4082 | 879.335 | 1446.5 | 5.076
298.15 K, x1 = 0.5013 | 891.374 | 1484.6 | 5.214
298.15 K, x1 = 0.6067 | 904.038 | 1525.4 | 5.317
298.15 K, x1 = 0.7079 | 915.617 | 1562.9 | 5.331
298.15 K, x1 = 0.8 | 925.474 | 1597.5 | 5.368
298.15 K, x1 = 0.8548 | 931.448 | 1617.8 | 5.433
298.15 K, x1 = 0.9075 | 936.842 | 1637.4 | 5.485
298.15 K, x1 = 0.9525 | 941.233 | 1653.8 | 5.562
303.15 K, x1 = 0.0517 | 814.209 | 1254.2 | 2.576
303.15 K, x1 = 0.1085 | 826.401 | 1285.9 | 3.027
303.15 K, x1 = 0.153 | 835.096 | 1309.9 | 3.256
303.15 K, x1 = 0.2024 | 844.036 | 1335.1 | 3.52
303.15 K, x1 = 0.2524 | 852.484 | 1359.6 | 3.768
303.15 K, x1 = 0.3079 | 861.136 | 1385.5 | 3.919
303.15 K, x1 = 0.4082 | 875.244 | 1429.3 | 4.169
303.15 K, x1 = 0.5013 | 887.28 | 1467.1 | 4.262
303.15 K, x1 = 0.6067 | 899.921 | 1507.7 | 4.302
303.15 K, x1 = 0.7079 | 911.479 | 1545.1 | 4.323
303.15 K, x1 = 0.8 | 921.305 | 1579.2 | 4.335
303.15 K, x1 = 0.8548 | 927.266 | 1598.6 | 4.346
303.15 K, x1 = 0.9075 | 932.668 | 1617.5 | 4.366
303.15 K, x1 = 0.9525 | 937.017 | 1633.6 | 4.422
308.15 K, x1 = 0.0517 | 810.286 | 1237.4 | 2.27
308.15 K, x1 = 0.1085 | 822.424 | 1269.3 | 2.622
308.15 K, x1 = 0.153 | 831.084 | 1293.2 | 2.81
308.15 K, x1 = 0.2024 | 839.988 | 1318.5 | 3.027
308.15 K, x1 = 0.2524 | 848.419 | 1343 | 3.198
308.15 K, x1 = 0.3079 | 857.059 | 1368.6 | 3.341
308.15 K, x1 = 0.4082 | 871.155 | 1412.2 | 3.524
308.15 K, x1 = 0.5013 | 883.174 | 1450.2 | 3.617
308.15 K, x1 = 0.6067 | 895.798 | 1490 | 3.642
308.15 K, x1 = 0.7079 | 907.33 | 1527.2 | 3.671
308.15 K, x1 = 0.8 | 917.129 | 1560.9 | 3.689
308.15 K, x1 = 0.8548 | 923.082 | 1580.1 | 3.712
308.15 K, x1 = 0.9075 | 928.432 | 1598.6 | 3.731
308.15 K, x1 = 0.9525 | 932.798 | 1614.5 | 3.771
313.15 K, x1 = 0.0517 | 806.326 | 1220.9 | –
313.15 K, x1 = 0.1085 | 818.415 | 1253.3 | –
313.15 K, x1 = 0.153 | 827.042 | 1277.3 | –
313.15 K, x1 = 0.2024 | 835.917 | 1302.4 | –
313.15 K, x1 = 0.2524 | 844.331 | 1327.4 | –
313.15 K, x1 = 0.3079 | 852.959 | 1352.7 | –
313.15 K, x1 = 0.4082 | 867.047 | 1396.2 | –
313.15 K, x1 = 0.5013 | 879.057 | 1433.9 | –
313.15 K, x1 = 0.6067 | 891.664 | 1473.9 | –
313.15 K, x1 = 0.7079 | 903.173 | 1510.5 | –
313.15 K, x1 = 0.8 | 912.964 | 1543.6 | –
313.15 K, x1 = 0.8548 | 918.81 | 1563 | –
313.15 K, x1 = 0.9075 | 924.23 | 1580.1 | –
313.15 K, x1 = 0.9525 | 928.584 | 1594.8 | –
